The record followed here is patent publication US9790207B2, “Pan-genomic inhibitors of NS5A protein encoded by HCV, pharmaceutical compositions, intermediates for inhibitor synthesis, and their synthesis and application methods” (priority 2015, dated 2017).

One series relates to HCV gT5a replicon. Description: HCV replicon assay, gT5a. Type of series: cell-based, Hepatitis C virus (HCV). The settings on record: Hepatitis C virus, GT5A, Huh-7, read-out: gT5a, EC50 (pM) mean. On the procedure: (§1) The HCV replicon assay was used to determine the antiviral activity of compounds of general formula 2 (test compounds). The test cell line used in the HCV Replicon Assay was the human hepatoma cell line Huh7 incorporating the HCV replicons synthesized by an outside vendor.
(§2) 96-well plates were seeded with cells at a density of 7.5×10^3 cells per well in 50 μl of assay media. The compound stock solution was made up freshly in an assay medium (DMEM 1×, Cellgro; cat. #10-013-CV) as a 2× stock. A total of 11 serial 3-fold dilutions of test compounds were prepared from the 2× stock in the assay media ranging from 20 nM-0.2 pM final concentrations. At least 4 hours after seeding the cells, compound treatment was initiated by adding 50 μl of compound dilution to the plates. The final concentrations of compound therefore ranged from 10 nM to 0.1 pM when diluted 1:1 in culture media. The final DMSO concentration was 0.5%. Cells and inhibitors were incubated for 3 days at 37° C./5% CO2. The media was removed from the plates by gentle tapping. The cells were fixed with 100 μl 1:1 acetone:methanol for 1 minute, washed three times with PBS buffer, and then blocked with 150 μl/well 10% Fetal Bovine Serum (FBS) in PBS for 1 hour at room temperature. The cells were then washed three times with PBS buffer and incubated with 100 μl/well anti-hepatitis C core mAb (Affinity BioReagents; cat. # MA1-080, 1 mg/ml stock diluted 1:4,000 in 10% FBS-PBS) for 2 hours at 37° C. Then, the cells were washed three times with PBS and incubated with 100 μl/well HRP-Goat Anti-Mouse antibody (diluted 1:3.500 in 10% FBS-PBS) for 1 hour at 37° C. The cells were then washed three times with PBS and developed with an OPD solution, 100 μl/well (1 OPD tablet+12 ml citrate/phosphate buffer+5 μl 30% H2O2 per plate), for 30 minutes in the dark at room temperature. The reaction was stopped with 2N H2SO4 (100 μl/well), and the absorbance was measured at A490 X on a Victor^3 V 1420 multilabel counter (Perkin Elmer).
Background: A replicon is a self-replicating genome or part of one, used to study replication in cells.

The next series concerns HCV gT4a replicon. Description: HCV replicon assay, gT4a. The settings on record: Hepatitis C virus, GT4A, Huh-7, read-out: gT4a, EC50 (pM) mean. In kind it is cell-based, Hepatitis C virus (HCV). On the procedure: as §1, §2
Series [1] can be described thus: Cytotoxicity, cell viability by ATPLite Kit. Type of series: cell-based, human. The settings on record: human, Huh7 cells (human hepatoma cell line), 10% FBS, maximal inhibition, read-out: Cytotox gT1b 10% FBS max. inh. As for the experimental part: The cytotoxicity of the test compounds was studied in parallel using the same cell line, Huh7. Cell viability was determined using the ATPLite Kit (Perkin-Elmer, Boston, USA), according to manufacturer's instructions. 96-well black/transparent bottom plates were seeded with cells at a density of 7.5×10^3 cells per well in 50 μl medium. After 18 hours, compound treatment was initiated by adding 50 μl of compound dilution into the plates. Each compound dilution was tested in triplicates. The cells and inhibitors were then incubated for 96 hours at 37° C./5% CO2. The plates were washed twice with PBS (0.2 ml/well), and then lysed by adding lysis buffer, 0.05 ml/well (all reagents were included with the ATPLite Kit). After rocking for 5 min on a rocking platform, substrate buffer was added (0.05 ml/well). After additional 5-min incubation, the plates were kept in dark for 10 min, and the luminescence was read using TopCount NXT (Packard, Perkin Elmer). CC50 values for all test compounds were determined using XLfit 4.1 software (Table 2).

Another series concerns HCV gT1a replicon. Nature of the series: HCV replicon assay, gT1a. The settings on record: Hepatitis C virus, GT1A, Huh-7; Huh7 replicon cells; mean. Type of series: cell-based, Hepatitis C virus (HCV). On the procedure:
as §1, §2

Another series relates to HCV gT1b replicon. Nature of the series: HCV replicon assay, gT1b. In kind it is cell-based, Hepatitis C virus (HCV). The settings on record: Hepatitis C virus, GT1B, Huh-7, Huh7 replicon cells, mean value. On the procedure:
as §1, §2

The subject of a further series is HCV gT3a replicon. Description: HCV replicon assay, gT3a. In kind it is cell-based, Hepatitis C virus (HCV). As for the experimental part:
as §1, §2

A further series deals with HCV gT2a replicon. Nature of the series: HCV replicon assay, gT2a. Type of series: cell-based, Hepatitis C virus (HCV). The settings on record: Hepatitis C virus, GT2A, Huh-7; Huh7 replicon cells; mean. On the procedure: as §1, §2
Setting [2] is: 10% FBS, read-out: gT1b 10% FBS, EC50 (pM) mean.
Setting [3] is: 40% NHS, read-out: gT1b 40% NHS, EC50 (pM) mean.
Setting [4] is: Hepatitis C virus, GT3A, Huh-7, read-out: gT3a, EC50 (pM) mean, Huh7 replicon cells.
Setting [5] is: Hepatitis C virus, GT3A, Huh-7, Huh7 replicon cells, mean, read-out: gT3a, EC50 (pM) mean.

Structures can show the parent of a compound that is named as a salt. Where two headings read alike, the source gives them in different places.

The EC50 is the concentration giving half of the maximal effect.

Consider `COC(=O)N[C@H](C(=O)N1CCC[C@H]1c1ncc(-c2ccc(C#CC#Cc3cnc([C@@H]4CCCN4C(=O)[C@H](NC(=O)OC)c4ccccc4)[nH]3)c(Oc3ccccc3)c2)[nH]1)C(C)C` [2(19)•2HCl, [(S)-1-((S)-2-{5-[4-(4-{2-[(S)-1-((R)-2-Methoxycarbonylamino-2-phenyl-acetyl)-pyrrolidin-2-yl]-3H-imidazol-4-yl}-buta-1,3-diynyl)-3-phenoxy-phenyl]-1H-imidazol-2-yl}-pyrrolidine-1-carbonyl)-2-methyl-propyl]-carbamic acid methyl ester dihydrochloride], for which the EC50 with HCV gT5a replicon was 18.8 pM; in the series on HCV gT4a replicon, 6 pM; in the series with HCV gT1a replicon, 214 pM; with HCV gT1b replicon (setting [2]), 1.53 pM; with HCV gT1b replicon (setting [3]), 8.41 pM; in the series with HCV gT3a replicon (setting [4]), 40.3 pM. The compound also returned a concentration giving a half-maximal response (EC50) in the series with HCV gT2a replicon of 12.6 pM. Further, the inhibition at 96 h in series [1] was 38%.

For the compound `COC(=O)N[C@H](C(=O)N1CCC[C@H]1c1ncc(-c2ccc(C#CC#Cc3cnc([C@@H]4CCCN4C(=O)[C@H](NC(=O)OC)c4ccccc4)[nH]3)c(N(C)c3ccccc3)c2)[nH]1)C(C)C` [2(21)•2HCl, [(S)-1-((S)-2-{5-[4-(4-{2-[(S)-1-((R)-2-Methoxycarbonylamino-2-phenyl-acetyl)-pyrrolidin-2-yl]-3H-imidazol-4-yl}-buta-1,3-diynyl)-3-(methyl-phenyl-amino)-phenyl]-1H-imidazol-2-yl}-pyrrolidine-1-carbonyl)-2-methyl-propyl]-carbamic acid methyl ester trihydrochloride], the EC50 in the series on HCV gT5a replicon amounted to 26.6 pM; with HCV gT4a replicon, 11 pM; with HCV gT1a replicon, 72 pM; in the series on HCV gT1b replicon (setting [2]) it was 1.79 pM; with HCV gT1b replicon (setting [3]), 14.2 pM; in the series with HCV gT3a replicon (setting [5]), 35.1 pM. For the same compound, in the series on HCV gT2a replicon, the EC50 was found to be 10.6 pM. Besides, the inhibition at 96 h in series [1] stood at 14%.

For `COC(=O)N[C@H](C(=O)N1CCC[C@H]1c1ncc(-c2ccc(-c3ccc(-c4cnc([C@@H]5CCCN5C(=O)[C@H](NC(=O)OC)c5ccccc5)[nH]4)cc3)c(-c3ccccc3)c2)[nH]1)C(C)C` [2(22)•2HCl, ((S)-1-{(S)-2-[5-(4-{2-[(S)-1-((R)-2-Methoxycarbonylamino-2-phenyl-acetyl)-pyrrolidin-2-yl]-3H-imidazol-4-yl}-[1,1′;2′,1″]terphenyl-4′-yl)-1H-imidazol-2-yl]-pyrrolidine-1-carbonyl}-2-methyl-propyl)-carbamic acid methyl ester dihydrochloride], the EC50 with HCV gT5a replicon turned out to be 31.3 pM; in the series on HCV gT4a replicon, 9.4 pM; in the series with HCV gT1a replicon it was 117 pM; in the series with HCV gT1b replicon (setting [2]) it was 2.58 pM; in the series with HCV gT1b replicon (setting [3]), 38.8 pM; with HCV gT3a replicon (setting [5]), 16.6 pM. This compound also came in with a concentration giving a half-maximal response (EC50) in the series on HCV gT2a replicon of 3.9 pM. Further, the inhibition at 96 h in series [1] stood at 30%.

For `COC(=O)N[C@H](C(=O)N1CCC[C@H]1c1ncc(-c2ccc(-c3ccc(-c4cnc([C@@H]5CCCN5C(=O)[C@H](NC(=O)OC)c5ccccc5)[nH]4)cc3)c(Oc3ccccc3)c2)[nH]1)C(C)C` [2(23)•2HCl, ((S)-1-{(S)-2-[5-(4′-{2-[(S)-1-((R)-2-Methoxycarbonylamino-2-phenyl-acetyl)-pyrrolidin-2-yl]-3H-imidazol-4-yl}-2-phenoxy-biphenyl-4-yl)-1H-imidazol-2-yl]-pyrrolidine-1-carbonyl}-2-methyl-propyl)-carbamic acid methyl ester dihydrochloride], the EC50 came to 13.6 pM in the series with HCV gT5a replicon; 5.4 pM in the series with HCV gT4a replicon; 154 pM in the series with HCV gT1a replicon; 2.1 pM in the series on HCV gT1b replicon (setting [2]); 15.7 pM in the series on HCV gT1b replicon (setting [3]); 10.3 pM in the series on HCV gT3a replicon (setting [5]). For the same compound, in the series on HCV gT2a replicon, the EC50 was determined as 4.1 pM. Also, in series [1], the inhibition at 96 h came out at 27%.

Consider `COC(=O)N[C@H](C(=O)N1CCC[C@H]1c1ncc(-c2ccc(-c3ccc(-c4cnc([C@@H]5CCCN5C(=O)[C@H](NC(=O)OC)c5ccccc5)[nH]4)cc3)c(Sc3ccccc3)c2)[nH]1)C(C)C` [2(24)•2HCl, ((S)-1-{(S)-2-[5-(4′-{2-[(S)-1-((R)-2-Methoxycarbonylamino-2-phenyl-acetyl)-pyrrolidin-2-yl]-3H-imidazol-4-yl}-2-phenylsulfanyl-biphenyl-4-yl)-1H-imidazol-2-yl]-pyrrolidine-1-carbonyl}-2-methyl-propyl)-carbamic acid methyl ester dihydrochloride], for which the half-maximal effective concentration (EC50) with HCV gT5a replicon is 21.6 pM; in the series with HCV gT4a replicon, 8.3 pM; in the series with HCV gT1a replicon, 557 pM; with HCV gT1b replicon (setting [2]) it was 1.33 pM; in the series on HCV gT1b replicon (setting [3]), 8.02 pM; with HCV gT3a replicon (setting [5]) it was 28.5 pM. This compound also showed a 50% effective concentration (EC50) with HCV gT2a replicon of 4 pM. In addition, the inhibition at 96 h in series [1] is 42%.

For `COC(=O)N[C@H](C(=O)N1CCC[C@H]1c1ncc(-c2ccc(-c3ccc(-c4cnc([C@@H]5CCCN5C(=O)[C@H](NC(=O)OC)c5ccccc5)[nH]4)cc3)c(N(C)c3ccccc3)c2)[nH]1)C(C)C` [2(25)•2HCl, [(S)-1-((S)-2-{5-[4′-{2-[(S)-1-((R)-2-Methoxycarbonylamino-2-phenyl-acetyl)-pyrrolidin-2-yl]-3H-imidazol-4-yl}-2-(methyl-phenyl-amino)-biphenyl-4-yl]-1H-imidazol-2-yl}-pyrrolidine-1-carbonyl)-2-methyl-propyl]-carbamic acid methyl ester trihydrochloride], the EC50 worked out at 43.2 pM in the series with HCV gT5a replicon; 13.9 pM in the series on HCV gT4a replicon; 345 pM in the series with HCV gT1a replicon; 1.72 pM in the series on HCV gT1b replicon (setting [2]); 11.5 pM with HCV gT1b replicon (setting [3]); 24.2 pM in the series with HCV gT3a replicon (setting [5]). Further, the midpoint of the response in the series with HCV gT2a replicon, the EC50, lay at 5.5 pM. In addition, the inhibition at 96 h in series [1] stood at 18%.

For `COC(=O)N[C@H](C(=O)N1CCC[C@H]1c1ncc(-c2cc(F)c(-c3ccc(-c4cnc([C@@H]5CCCN5C(=O)[C@H](NC(=O)OC)c5ccccc5)[nH]4)cc3)c(-c3ccccc3)c2)[nH]1)C(C)C` [2(26)•2HCl, ((S)-1-{(S)-2-[5-(6′-Fluoro-4-{2-[(S)-1-((R)-2-methoxycarbonylamino-2-phenyl-acetyl)-pyrrolidin-2-yl]-3H-imidazol-4-yl}-[1,1′;2′,1″]terphenyl-4′-yl)-1H-imidazol-2-yl]-pyrrolidine-1-carbonyl}-2-methyl-propyl)-carbamic acid methyl ester dihydrochloride], the EC50 in the series with HCV gT5a replicon turned out to be 14.3 pM; with HCV gT4a replicon it was 7.9 pM; with HCV gT1a replicon it was 30.3 pM; in the series on HCV gT1b replicon (setting [2]), 3.2 pM; with HCV gT1b replicon (setting [3]) it was 14.5 pM; with HCV gT3a replicon (setting [4]) it was 9.2 pM. Further, the EC50 in the series with HCV gT3a replicon (Huh7 replicon cells, mean, dihydrochloride, read-out: gT3a, EC50 (pM) mean) stood at 9.8 pM; in the series with HCV gT2a replicon it was 3.1 pM. Also, the inhibition at 96 h in series [1] turned out to be 39%.
